Assay results published in the supplement of paper PMC11061612.

Key:
[1] = system: OE21 (Esophageal Squamous Cell Carcinoma); test: combination Emax (second highest fraction inhibited in the dose matrix, 72 h); higher = more inhibition; extreme values may be limits of the assay
Summary of the method: (§1)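 Bliss excess equals the observed combination effect minus the expected value EA + EB − EA·EB, where EA and EB are the effects of each agent alone. Combination Emax is the second-highest inhibition within the matrix. Inhibition was scaled from CellTiter-Glo 2.0 luminescence, with 0 set by vehicle wells and 1 by blank wells, after 72 hours of two-drug dosing of cells plated in 1536-well plates.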

[2] = system: HH (T-Cell Non-Hodgkin's Lymphoma); test: as above
Summary of the method: as §1

[3] = system: LCLC-97TM1 (Non-Small Cell Lung Carcinoma); test: as above
Summary of the method: as §1

[4] = system: LS-123 (Colorectal Carcinoma); test: as above
Summary of the method: as §1

KS-1 (Glioblastoma) [5] = test: as above
Summary of the method: as §1

CAL-72 (Osteosarcoma) = test: Bliss excess, mean over the matrix (fraction); higher = more synergy
Summary of the method: as §1

[6] = system: SNU-16 (Gastric Carcinoma); test: as above
Summary of the method: as §1

A673 (Ewing's Sarcoma) = test: as above
Summary of the method: as §1

[7] = system: Detroit562 (Head and Neck Carcinoma); test: as above
Summary of the method: as §1

NCI-H2722 (Mesothelioma) = test: as above
Summary of the method: as §1

[8] = system: SW1573 (Lung Adenocarcinoma); test: as above
Summary of the method: as §1

[9] = system: BE-13 (T-Lymphoblastic Leukemia); test: as above
Summary of the method: as §1

BPH-1 (Non-Cancerous) = test: as above
Summary of the method: as §1

[10] = system: HuH-7 (Hepatocellular Carcinoma); test: as above
Summary of the method: as §1

[11] = system: LCLC-97TM1 (Non-Small Cell Lung Carcinoma); test: as above
Summary of the method: as §1

[12] = system: KMRC-20 (Kidney Carcinoma); test: as above
Summary of the method: as §1

[13] = system: NCI-H1568 (Lung Adenocarcinoma); test: as above
Summary of the method: as §1

KS-1 (Glioblastoma) [14] = test: as above
Summary of the method: as §1

[15] = system: KYAE-1 (Esophageal Adenocarcinoma); test: as above
Summary of the method: as §1

[16] = system: HeLa (Cervical Carcinoma); test: as above
Summary of the method: as §1

Row | SMILES | combination Emax [1] | combination Emax [2] | combination Emax [3] | combination Emax [4] | combination Emax (KS-1 (Glioblastoma) [5]) | Bliss excess (CAL-72 (Osteosarcoma)) | Bliss excess [6] | Bliss excess (A673 (Ewing's Sarcoma)) | Bliss excess [7] | Bliss excess (NCI-H2722 (Mesothelioma)) | Bliss excess [8] | Bliss excess [9] | Bliss excess (BPH-1 (Non-Cancerous)) | Bliss excess [10] | Bliss excess [11] | Bliss excess [12] | Bliss excess [13] | Bliss excess (KS-1 (Glioblastoma) [14]) | Bliss excess [15] | Bliss excess [16]
1 | COc1nnc2ccc(N3CCC(c4ccc(OCCN5CCN(C)C(=O)[C@H]5C)cc4)CC3)nn12 [AZD5153] + CC1(C)CCC(CN2CCN(c3ccc(C(=O)NS(=O)(=O)c4ccc(NCC5CCOCC5)c([N+](=O)[O-])c4)c(Oc4cnc5[nH]ccc5c4)c3)CC2)=C(c2ccc(Cl)cc2)C1 [Venetoclax] (first compound max 1 µM, 7x7, partner max 1 µM) | 0.662 | 0.406 | 0.685 | 0.43 | 0.649 | -0.0305 | -0.0522 | -0.0706 | -0.0552 | -0.0485 | -0.118 | -0.0428 | -0.0574 | -0.0987 | -0.0277 | -0.0096 | -0.0383 | -0.0763 | -0.0171 | -0.0574
2 | COc1nnc2ccc(N3CCC(c4ccc(OCCN5CCN(C)C(=O)[C@H]5C)cc4)CC3)nn12 [AZD5153] + C=CCn1c(=O)c2cnc(Nc3ccc(N4CCN(C)CC4)cc3)nc2n1-c1cccc(C(C)(C)O)n1 [AZD1775] (first compound max 1 µM, partner max 1 µM) | 0.742 | 0.47 | 0.848 | 0.546 | 0.686 | -0.0524 | -0.0385 | -0.055 | -0.0535 | 0.0139 | -0.0388 | -0.0879 | 0.0246 | 0.0129 | -0.0845 | -0.0446 | -0.102 | -0.0308 | -0.0142 | -0.072
3 | Cc1c2c(nn1C)CSCc1cc(n(C)n1)CSc1cc(c3ccccc3c1)OCCCc1c(C(=O)O)n(C)c3c-2c(Cl)ccc13 [AZD5991] + C=CCn1c(=O)c2cnc(Nc3ccc(N4CCN(C)CC4)cc3)nc2n1-c1cccc(C(C)(C)O)n1 [AZD1775] (first compound max 1 µM, partner max 1 µM) | 0.719 | 0.77 | 0.948 | 0.66 | 0.464 | 0.0098 | 0.0049 | 0.0002 | 0.0261 | -0.016 | -0.0337 | -0.0097 | -0.0071 | -0.0259 | -0.0141 | -0.0011 | 0.0349 | -0.0553 | -0.0078 | -0.0224
4 | CC(=O)c1c(C)c2cnc(Nc3ccc(N4CCNCC4)cn3)nc2n(C2CCCC2)c1=O [Palbociclib] + CC1(C)CCC(CN2CCN(c3ccc(C(=O)NS(=O)(=O)c4ccc(NCC5CCOCC5)c([N+](=O)[O-])c4)c(Oc4cnc5[nH]ccc5c4)c3)CC2)=C(c2ccc(Cl)cc2)C1 [Venetoclax] (first compound max 10 µM, 7x7, partner max 1 µM) | 0.229 | 0.343 | 0.176 | 0.138 | 0.348 | -0.0439 | -0.0161 | -0.0426 | 0.0008 | -0.0485 | -0.0108 | -0.0182 | -0.0556 | -0.0402 | -0.0231 | -0.03 | -0.0506 | -0.0211 | -0.023 | -0.0473
5 | COc1cccc(OCCCN)c1-c1cc(Nc2cnc(C#N)cn2)n[nH]1 [Prexasertib] + CN(C)CCCOc1ccc(-c2ccc3ncc4c(c3c2)n(C2CCOCC2)c(=O)n4C)cn1 [AZD0156] (first compound max 1 µM, 7x7, partner max 1 µM) | 0.726 | 0.703 | 0.925 | 0.752 | 0.581 | -0.0922 | -0.0135 | 0.0133 | -0.014 | 0.0073 | -0.0129 | -0.0338 | 0.0118 | -0.0335 | -0.0439 | -0.0382 | -0.032 | -0.0131 | 0.0184 | 0.0079
6 | CS(=O)(=O)CCNCc1ccc(-c2ccc3ncnc(Nc4ccc(OCc5cccc(F)c5)c(Cl)c4)c3c2)o1 [Lapatinib] + C[C@@H](Oc1cc(-c2cnn(C3CCNCC3)c2)cnc1N)c1c(Cl)ccc(F)c1Cl [Crizotinib] (first compound max 10 µM, 7x7, partner max 10 µM) | 0.936 | 0.327 | 0.979 | 0.746 | 0.79 | -0.0926 | -0.0151 | -0.0546 | 0.0107 | -0.0713 | -0.0788 | -0.0235 | -0.0078 | 0.0309 | -0.0093 | -0.116 | -0.0174 | -0.0458 | -0.0171 | -0.0031
7 | CC1(C)CCC(CN2CCN(c3ccc(C(=O)NS(=O)(=O)c4ccc(NCC5CCOCC5)c([N+](=O)[O-])c4)c(Oc4cnc5[nH]ccc5c4)c3)CC2)=C(c2ccc(Cl)cc2)C1 [Venetoclax] + C[C@@H]1COCCN1C2=NC(=NC(=C2)C3(CC3)[S@](=N)(=O)C)C4=C5C=CNC5=NC=C4 [AZD6738] (first compound max 1 µM, 7x7, partner max 10 µM) | 0.828 | 0.352 | 0.85 | 0.587 | 0.57 | -0.0313 | -0.0218 | -0.0024 | -0.0505 | -0.0405 | -0.0705 | -0.0204 | -0.0336 | -0.0181 | -0.0506 | -0.0047 | -0.0156 | -0.0368 | -0.0387 | -0.0688
8 | C=CCn1c(=O)c2cnc(Nc3ccc(N4CCN(C)CC4)cc3)nc2n1-c1cccc(C(C)(C)O)n1 [AZD1775] + O=C(c1cc(Cc2n[nH]c(=O)c3ccccc23)ccc1F)N1CCN(C(=O)C2CC2)CC1 [Olaparib] (first compound max 1 µM, partner max 10 µM) | 0.498 | 0.443 | 0.774 | 0.644 | 0.481 | -0.0871 | 0.0102 | 0.0042 | -0.0389 | -0.0143 | -0.0268 | -0.0409 | -0.0199 | -0.0107 | -0.0833 | -0.112 | -0.0745 | -0.0097 | -0.0006 | 0.0346
9 | CC1(C)CCC(CN2CCN(c3ccc(C(=O)NS(=O)(=O)c4ccc(NCC5CCOCC5)c([N+](=O)[O-])c4)c(Oc4cnc5[nH]ccc5c4)c3)CC2)=C(c2ccc(Cl)cc2)C1 [Venetoclax] + COc1cc(Nc2ncc3c(n2)-c2ccc(Cl)cc2C(c2c(F)cccc2OC)=NC3)ccc1C(=O)O [Alisertib] (first compound max 1 µM, 7x7, partner max 10 µM) | 0.382 | 0.222 | 0.497 | 0.385 | 0.635 | -0.049 | -0.052 | 0.198 | -0.043 | -0.0855 | -0.0548 | -0.003 | -0.0459 | -0.0508 | 0.0449 | 0.0226 | -0.0418 | 0.0145 | -0.119 | 0.0517
10 | CCN(CCO)CCCOc1ccc2c(Nc3cc(CC(=O)Nc4cccc(F)c4)[nH]n3)ncnc2c1 [AZD2811] + C=CCn1c(=O)c2cnc(Nc3ccc(N4CCN(C)CC4)cc3)nc2n1-c1cccc(C(C)(C)O)n1 [AZD1775] (first compound max 1 µM, partner max 1 µM) | 0.468 | 0.293 | 0.842 | 0.68 | 0.481 | -0.0866 | 0.0538 | -0.0838 | 0.05 | 0.023 | 0.0297 | -0.0298 | -0.0007 | -0.0232 | 0.033 | -0.0562 | -0.0301 | 0.0223 | -0.0176 | 0.0278
11 | COc1cccc(OCCCN)c1-c1cc(Nc2cnc(C#N)cn2)n[nH]1 [Prexasertib] + Cc1cc2ncnn2cc1Nc1ncc2c(n1)n(C1CCOCC1)c(=O)n2C [AZD7648] (first compound max 1 µM, 7x7, partner max 10 µM) | 0.788 | 0.65 | 0.938 | 0.764 | 0.546 | -0.112 | -0.0059 | -0.0112 | -0.0342 | -0.012 | -0.0225 | 0.0364 | 0.0161 | -0.0199 | -0.0411 | -0.0474 | -0.0303 | 0.0198 | 0.0382 | 0.0133
12 | CC(=O)Nc1cccc(-n2c(=O)n(C3CC3)c(=O)c3c(Nc4ccc(I)cc4F)n(C)c(=O)c(C)c32)c1 [Trametinib] + Cc1nc(-c2cn3c(n2)-c2ccc(-c4cnn(C(C)(C)C(N)=O)c4)cc2OCC3)n(C(C)C)n1 [Taselisib] (first compound max 1 µM, 7x7, partner max 10 µM) | 0.952 | 0.524 | 1 | 0.885 | 0.832 | -0.0264 | 0.257 | 0.229 | 0.108 | -0.0078 | 0.0334 | -0.0123 | 0.0283 | 0.0875 | 0.0752 | 0.0506 | 0.131 | 0.015 | 0.0462 | 0.0483
13 | CC1(C)CCC(CN2CCN(c3ccc(C(=O)NS(=O)(=O)c4ccc(NCC5CCOCC5)c([N+](=O)[O-])c4)c(Oc4cnc5[nH]ccc5c4)c3)CC2)=C(c2ccc(Cl)cc2)C1 [Venetoclax] + CCN(CCO)CCCOc1ccc2c(Nc3cc(CC(=O)Nc4cccc(F)c4)[nH]n3)ncnc2c1 [AZD2811] (first compound max 1 µM, 7x7, partner max 1 µM) | 0.159 | 0.18 | 0.289 | 0.162 | 0.341 | -0.0984 | 0.0202 | 0.0295 | -0.013 | -0.0269 | -0.0575 | -0.0468 | -0.0198 | -0.0133 | -0.0053 | -0.0273 | -0.0339 | -0.0516 | -0.0002 | 0.0336
